Laboratory results reported in ChEMBL document CHEMBL3352157, “1,2,4-triazolo[1,5-a]quinoxaline derivatives and their simplified analogues as adenosine A₃ receptor antagonists. Synthesis, structure-affinity relationships and molecular modeling studies” (Bioorg Med Chem, 2015).
Calls of active or inactive are those of the source. The rule behind the calls is not given here.

Legend:
Adenosine receptor A2a [1] = target: T1, Adenosine receptor A2a (Homo sapiens, UniProt P29274); test: Displacement of [3H]NECA from human adenosine A2A receptor expressed in CHO cells at 10 uM; format: cell-based
T1 sequence (P29274 whole entry): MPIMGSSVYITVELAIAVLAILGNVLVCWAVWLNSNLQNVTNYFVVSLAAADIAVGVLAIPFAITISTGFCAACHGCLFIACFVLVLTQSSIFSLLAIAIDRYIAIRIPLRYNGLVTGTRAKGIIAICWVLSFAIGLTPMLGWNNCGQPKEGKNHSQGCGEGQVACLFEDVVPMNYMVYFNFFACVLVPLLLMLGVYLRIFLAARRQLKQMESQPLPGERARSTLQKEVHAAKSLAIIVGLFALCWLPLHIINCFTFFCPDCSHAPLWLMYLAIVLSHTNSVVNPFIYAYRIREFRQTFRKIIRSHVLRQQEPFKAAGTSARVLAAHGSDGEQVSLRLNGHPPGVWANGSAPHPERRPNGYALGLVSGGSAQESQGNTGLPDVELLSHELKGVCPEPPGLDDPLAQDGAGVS

Adenosine receptor A1 = target: T2, Adenosine receptor A1 (Homo sapiens, UniProt P30542); test: Displacement of [3H]DPCPX from human adenosine A1 receptor expressed in CHO cells; format: cell-based
T2 sequence (P30542 whole entry): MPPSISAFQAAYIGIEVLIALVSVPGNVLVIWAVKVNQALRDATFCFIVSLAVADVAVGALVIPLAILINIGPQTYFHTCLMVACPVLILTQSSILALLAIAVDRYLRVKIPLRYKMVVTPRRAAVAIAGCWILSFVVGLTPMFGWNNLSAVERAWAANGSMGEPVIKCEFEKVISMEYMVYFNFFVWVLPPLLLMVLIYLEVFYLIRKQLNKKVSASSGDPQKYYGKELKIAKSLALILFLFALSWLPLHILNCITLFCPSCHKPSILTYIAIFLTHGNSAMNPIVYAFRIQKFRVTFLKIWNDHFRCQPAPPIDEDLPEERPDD

Adenosine receptor A3 = target: T3, Adenosine receptor A3 (Homo sapiens, UniProt P0DMS8); test: Displacement of [125I]AB-MECA from human adenosine A3 receptor expressed in CHO cells; format: cell-based
T3 sequence (P0DMS8 whole entry): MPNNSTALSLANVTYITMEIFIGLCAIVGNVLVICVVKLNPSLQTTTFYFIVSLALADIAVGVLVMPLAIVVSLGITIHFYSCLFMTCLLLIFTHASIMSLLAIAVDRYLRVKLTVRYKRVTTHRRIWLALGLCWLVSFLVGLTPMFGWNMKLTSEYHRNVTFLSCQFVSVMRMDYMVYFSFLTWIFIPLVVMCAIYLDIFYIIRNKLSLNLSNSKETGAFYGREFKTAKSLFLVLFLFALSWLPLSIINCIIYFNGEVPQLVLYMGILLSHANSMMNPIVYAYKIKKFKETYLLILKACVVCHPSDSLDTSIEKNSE

[2] = target: T4, Adenosine receptor A2b (Homo sapiens) (UniProt P29275); test: Agonist activity at human recombinant adenosine A2B receptor expressed in CHO cells assessed as cAMP accumulation at 10 uM after 15 mins by liquid scintillation counting analysis; format: functional, cell-based
T4 sequence (whole entry): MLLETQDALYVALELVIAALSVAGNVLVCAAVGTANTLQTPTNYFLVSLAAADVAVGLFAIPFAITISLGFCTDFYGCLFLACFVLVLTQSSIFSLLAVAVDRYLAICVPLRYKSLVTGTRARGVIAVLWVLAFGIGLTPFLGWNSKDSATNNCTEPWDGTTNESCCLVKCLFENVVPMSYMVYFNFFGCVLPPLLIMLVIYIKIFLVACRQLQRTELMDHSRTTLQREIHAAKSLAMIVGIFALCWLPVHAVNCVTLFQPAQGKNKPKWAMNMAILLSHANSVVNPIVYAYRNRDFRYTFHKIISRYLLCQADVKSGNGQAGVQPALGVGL

[3] = target: T4, Adenosine receptor A2b (Homo sapiens); test: Antagonist activity at human recombinant adenosine A2B receptor expressed in CHO cells assessed as inhibition of NECA-induced cAMP accumulation measured as cAMP level at 10 uM incubated for 15 mins prior to NECA challenge measured after 30 mins by liquid scintillation counting analysis relative to control; format: functional, cell-based; design: scale not given: the % may be the effect or the level left
[4] = target: T5, Adenosine receptor A1 (Homo sapiens) (UniProt P30542); test: Displacement of [3H]DPCPX from human adenosine A1 receptor expressed in CHO cells at 10 uM; format: cell-based
T5 sequence (whole entry): T2 sequence (P30542 whole entry)

[5] = target: T6, Adenosine receptor A3 (Homo sapiens) (UniProt P0DMS8); test: Displacement of [125I]AB-MECA from human adenosine A3 receptor expressed in CHO cells at 1 uM; format: cell-based
T6 sequence (whole entry): T3 sequence (P0DMS8 whole entry)

Adenosine receptor A2a [6] = target: T1, Adenosine receptor A2a; test: Displacement of [3H]NECA from human adenosine A2A receptor expressed in CHO cells; format: cell-based

Row | Compound | inhibition (Adenosine receptor A2a [1]) [%] | Ki (Adenosine receptor A1) [µM] | Ki (Adenosine receptor A3) [µM] | Activity [2] | Activity [3] [%] | inhibition [4] [%] | inhibition [5] [%] | Ki (Adenosine receptor A2a [6]) [µM]
1 | Clc1ccc2ncc3nc(-c4ccccc4)nn3c2c1 | 19 | 0.127 | 0.0152 |  |  |  |  | 
2 | C#CCOC(=O)N1Cc2nc(-c3ccc(OC)cc3)nn2-c2cc(C)ccc21 | 13 |  | 0.0233 | inactive | 109 | 49 |  | 
3 | CCCOC(=O)N1Cc2nc(-c3ccccc3)nn2-c2cc(C)ccc21 | 56 | 0.565 | 0.171 |  |  |  |  | 
4 | COc1ccc(-c2nc3n(n2)-c2cc(C)ccc2N(C(=O)Cc2ccccc2)C3)cc1 | 0 |  | 0.0548 | inactive | 89.5 | 39 |  | 
5 | COc1ccc(-c2ncn(-c3cc(C)ccc3NC(=O)Cc3ccccc3)n2)cc1 | 1 |  |  |  |  | 44 | 45 | 
6 | CCC(=O)N1Cc2nc(-c3ccccc3)nn2-c2ccccc21 | 52 | 1.36 |  |  |  |  | 55 | 
7 | CCOC(=O)N1Cc2nc(-c3ccc(OC)cc3)nn2-c2cc(C)ccc21 | 2 | 0.086 | 0.0394 |  |  |  |  | 
8 | COc1ccc(-c2nc3cnc4ccc(C)cc4n3n2)cc1 | 30 | 2.02 | 0.0266 | inactive | 42.6 |  |  | 
9 | COC(=O)N1Cc2nc(-c3ccccc3)nn2-c2cc(C)ccc21 | 32 | 1.48 | 0.0319 | inactive | 74.9 |  |  | 
10 | CCC(=O)N1Cc2nc(-c3ccccc3)nn2-c2cc(C)ccc21 | 33 | 0.134 | 0.0065 | inactive | 68.6 |  |  | 
11 | COc1ccc(-c2ncn(-c3cc(C)ccc3NC(=O)OCc3ccccc3)n2)cc1 | 7 |  |  |  |  | 2 | 47 | 
12 | Cc1ccc2ncc3nc(-c4ccccc4)nn3c2c1 |  | 1.32 | 0.0239 |  |  |  |  | 2.4
13 | CCOC(=O)N1Cc2nc(-c3ccccc3)nn2-c2ccccc21 | 33 | 4.6 |  |  |  |  | 22 | 
14 | C#CCOC(=O)Nc1ccc(C)cc1-n1cnc(-c2ccc(OC)cc2)n1 | 16 |  |  |  |  |  | 35 | 
15 | COc1ccc(-c2nc(NC(=O)c3ccccc3)n(-c3ccccc3)n2)cc1 | 43 |  |  |  |  | 25 | 50 | 
16 | c1ccc(-c2nc3cnc4ccccc4n3n2)cc1 |  |  | 0.0915 |  |  |  |  | 
17 | CCOC(=O)N1Cc2nc(-c3ccccc3)nn2-c2cc(Cl)ccc21 |  |  | 0.166 |  |  |  |  | 
18 | COc1ccc(-c2nc(N(C(C)=O)C(C)=O)n(-c3ccccc3)n2)cc1 | 4 |  |  |  |  | 26 | 19 | 
19 | CCOC(=O)Nc1ccc(C)cc1-n1cnc(-c2ccc(OC)cc2)n1 | 13 |  |  |  |  | 6 | 34 | 
20 | CCOC(=O)N1Cc2nc(-c3ccccc3)nn2-c2cc(C)ccc21 | 9 | 0.556 | 0.0125 | inactive | 104 |  |  | 
21 | CCC(=O)N1Cc2nc(-c3ccccc3)nn2-c2cc(Cl)ccc21 | 24 |  | 0.072 | inactive | 63.7 | 39 |  | 
22 | COC(=O)N1Cc2nc(-c3ccccc3)nn2-c2ccccc21 | 50 |  | 0.245 |  |  | 34 |  | 
23 | COc1ccc(-c2nc3n(n2)-c2cc(C)ccc2N(C(=O)OCc2ccccc2)C3)cc1 | 4 |  | 0.231 |  |  | 45 |  | 
24 | COc1ccc(-c2nc(NC(=O)Nc3ccccc3)n(-c3ccccc3)n2)cc1 | 7 |  | 0.545 |  |  | 1 |  | 
25 | CCC(=O)N1Cc2nc(-c3ccc(OC)cc3)nn2-c2cc(C)ccc21 | 6 | 1.54 | 0.0251 | inactive | 102 |  |  | 
26 | COc1ccc(-c2nc(N(C(=O)c3ccccc3)C(=O)c3ccccc3)n(-c3ccccc3)n2)cc1 | 13 |  |  |  |  | 55 | 44 | 
